From US11369584B2, “Andrographolide derivatives and method of using the same for treatment or prevention of fibrosis” (Zhengzhou University, priority 2017, dated 2022)

What was measured:
[1] = system: SD rats with liver fibrosis induced by CCl4; test: CCl4-induced liver fibrosis in SD rats; assay type: in vivo; details: ELISA
Procedure: SD rats were fed ad libitum for 3 days, and then randomly divided into normal group and model group. Subcutaneous injection of 40% CCl4 of soybean oil to the rats of model group for the first time. Following an initial dose of 4 mL/kg, each subsequent dose was 2 mL/kg, 2 times every week. The corresponding volumes of soy oil were injected subcutaneously to the normal group. After 4 weeks of modeling, except for the normal group, other rats were weighed individually and then randomly divided into eight rats per group. The dosages of andrographolide, oxymatrine, silibinin and the compound A of the disclosure were both 20 mg/kg, and the doses of other compounds were the same molar mass as compound A, and the model group and the normal group were given an equal amount of 0.5% CMC-Na. During the 5th and 6th weeks of the experiment, modeling and administration were carried out simultaneously, furthermore, the modeling was stopped at the 7th and 8th weeks, while the administered continued to carry out. Drugs were administrated by gavage on an empty stomach in the morning every day, and were given daily for 10 days followed by 1-day break. The bedding of the rats should be replaced at the first 8 hours of the last gavage, strictly fasting with nothing but water. After 1 h of administration, an anesthetic of 3% pentobarbital sodium (2 mL/kg) was intraperitoneally injected. […] Image-Pro Plus software performed semi-quantitative analysis of fibrosis histology on the photographs of Masson stained sections. […] The expression of α-SMA (a marker of the degree of HSC activation) in liver tissue was evaluated by immunohistochemistry, and the positive expression was quantified using Image-Pro Plus, the results were shown in FIGS. 6 and 7. Data were processed and analyzed using SPSS 17.0 statistical software. Data were expressed as mean±standard deviation (X±S); There were significant differences between groups when P<0.05. The levels of LN, C-I, PC-III and C-IV in the serum of the animals were determined by ELISA using the compound H of the disclosure as a representative. Data were processed and analyzed using SPSS 17.0 statistical software. Data were expressed as mean±standard deviation (X±S); There were significant differences between groups when P<0.05. The level of IL-6 and TNF-α in the serum of the animal was determined by ELISA using the compound H of the disclosure as a representative, the results were shown in FIGS. 20 and 21. Data were processed and analyzed using SPSS 17.0 statistical software. Data were expressed as mean±standard deviation (X±S); There were significant differences between groups when P<0.05. The level of SOD and MDA in the liver tissue of the animal was determined by the compound H of the disclosure, the results were shown in FIGS. 22 and 23. […]

[2] = system: human proximal tubular epithelial cells HK-2; test: TGF-β1-induced conversion of HK-2 cells to mesenchymal cells (morphological observation); assay type: cell-based; details: TGF-β1 5 ng/mL, 48 h, test concentrations 0.08-[…]
Procedure: Human proximal tubular epithelial cells HK-2 (provided by the China Center for Type Culture Collection) were used to study the in vitro anti-renal fibrosis effect of the compounds of the disclosure in comparison with andrographolide (AD). HK-2 cells were cultured in DMEM-F12 medium containing 10% (V/V) fetal bovine serum, 100 μg/mL streptomycin, and 100 IU/mL penicillin respectively, and then incubated in an incubator at 5% CO2 and 37° C., humidified atmosphere. HK-2 cells in logarithmic growth phase were digested with 0.25% (w/v) trypsin and 0.02% EDTA (W/V), and diluted into 5.0×10^6/mL cell suspension with DMEM-F12 medium containing 10% (v/v) fetal bovine serum. After each 96-well plate was filled with 200 μL cell suspension, the plates were placed in an incubator for 24 h in order to generate a single layer of cells. The original medium was discarded, and the cells were washed twice with PBS, and the medium without serum was added. After 24 h of re-synchronized, 200 μL of DMEM-F12 medium containing different concentrations of the test compound and the stimulating factor TGF-β1 (5 ng/mL) was added. Each treatment was repeated in 4 wells and control group was set up. After 48 h of incubation, the cells were photographed under a microscope.

Compound	content of C-I in liver tissue [1]	content of C-IV in the serum [1]	Inhibitory effect ([2]; Table 1A)	Optimal effective dose range ([2]; Table 1A)	Inhibitory effect ([2]; Table 1B)	Optimal effective dose range ([2]; Table 1B)
C=C1CC[C@@H]2[C@](C)(CO)[C@H](O)CC[C@@]2(C)[C@@H]1C/C=C1/C(=O)OC[C@H]1O [AD, andrographolide]	significantly reduced	significantly reduced	Medium	0.31 to 1.25 µM	Medium	0.31 to 1.25 µM
O=C1CCC[C@@H]2[C@H]3CCC[N+]4([O-])CCC[C@@H](CN12)[C@@H]34 (some centres unmarked) [Oxymatrine, oxymatrine]	significantly reduced	significantly reduced	–	–	–	–
